Values quoted from earlier work as cited in patent US20180243418A1, “SYSTEMS AND METHODS FOR TARGETED CANCER THERAPIES” (American University of Sharjah, priority 2017, published 2018).

Legend:
[1] = tested on: human and mice melanoma cells; conditions: melanoma cells treated for about 8 hours
[2] = tested on: VX2 carcinoma cells; conditions: rabbits implanted with VX2 carcinoma cells, intravenous

For `COc1cccc2c1C(=O)c1c(O)c3c(c(O)c1C2=O)C[C@@](O)(C(=O)CO)C[C@@H]3O[C@H]1C[C@H](N)[C@H](O)[C@H](C)O1` [free Dox, doxorubicin], the “accumulation in the nucleus, of the initial amount” value [1] is listed as “about 26%”, the “initial concentration detected in the cell cytoplasm” value [1] is listed as “about 0.5%” and the “concentration of Dox in tumors” value [2] is listed as “about 4.0±1.0 μg Dox/g tissues”.
